These results are taken from patent US6964975B2, “Isoxazole and thiazole compounds and use thereof as medicine” (Kirin Beer Kabushiki Kaisha, priority 2000, dated 2005).

In this experiment the target is T1, human EDG-2 (Homo sapiens, UniProt Q92633).
T1 construct: cDNA of the cloned human EDG-2 was introduced into pEFneo, which is an animal expression vector; expressed in transfected cells; host or cells: HepG2
T1 sequence (Q92633 whole entry): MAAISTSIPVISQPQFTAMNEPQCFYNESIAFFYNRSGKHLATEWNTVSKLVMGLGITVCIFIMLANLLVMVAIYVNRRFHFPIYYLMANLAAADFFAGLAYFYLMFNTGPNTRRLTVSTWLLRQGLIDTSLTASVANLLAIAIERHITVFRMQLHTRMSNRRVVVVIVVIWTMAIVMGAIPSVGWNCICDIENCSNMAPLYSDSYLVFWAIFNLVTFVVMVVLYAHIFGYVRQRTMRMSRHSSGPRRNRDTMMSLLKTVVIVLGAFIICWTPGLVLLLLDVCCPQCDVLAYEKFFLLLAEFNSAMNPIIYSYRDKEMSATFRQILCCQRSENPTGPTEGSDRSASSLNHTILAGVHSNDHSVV
Kind of experiment: Inhibitory activity on LPA-induced elevation of intracellular Ca2+ level. The settings on record: 50% inhibition of elevation of intracellular Ca2+ level by LPA, human EDG-2/HepG2 cells, fura-2. It counts as cell-based. An excerpt: The human EDG-2 expression plasmid was introduced into HepG2 cells by electroporation. After the introduction, culturing was continued while exchanging selective media every 3 to 4 days, thereby obtaining an expressed colony. Regarding these cells, Ca-influx and cell-proliferation by LPA, level of [^3H] LPA binding and the like were inspected to select a cell line which highly expresses human EDG-2 (human EDG-2/HepG2).
Human EDG-2/HepG2 cells were washed and then suspended in 0.1% BSA (bovine serum albumin)-containing HEPES buffer. A fluorescent indicator, fura-2/AM (Wako Pure Chemical Industries, Ltd.), was added, and the mixture was shaken at room temperature for 45 minutes so that the indicator is included in the cell. Cells were washed again and then suspended in 0.1% BSA-containing HEPES buffer, and intracellular Ca^2+ level was assayed using FDSS2000 (Hamamatsu Photonics). […] Each test compound was added to the cell suspension followed by the addition of LPA, thereby examining the inhibitory activity of the test compound on the function of LPA for elevating the intracellular Ca level. […] The lower the IC50 value, the higher the antagonistic activity on the LPA receptor.
In turn, `Cc1noc(-c2ccccc2F)c1NC(=O)OC(C)c1ccccc1` (stereo not drawn) [Compound 42, 1-Phenylethyl N-[5-(2-fluorophenyl)-3-methyl-4-isoxazolyl]carbamate] registered an IC50 of 10 µM.

`Cc1noc(-c2ccncc2)c1NC(=O)OC(C)c1ccccc1` (stereo not drawn) [Compound 61, 1-Phenylethyl N-[3-methyl-5-(4-pyridyl)-4-isoxazolyl]carbamate] displayed an IC50 of 3 to 10 µM.

`Cc1onc(-c2ccc(F)cc2)c1NC(=O)OC(C)c1ccccc1Cl` (stereo not drawn) [Compound 16, 1-(2-Chlorophenyl)ethyl N-[3-(4-fluorophenyl)-5-methyl-4-isoxazolyl]carbamate] yielded an IC50 of 3 to 10 µM.

In the case of `COCc1ccc(-c2onc(C)c2NC(=O)OC(C)c2ccccc2Cl)cc1` (stereo not drawn) [Compound 87, 1-(2-Chlorophenyl)ethyl N-[5-[4-(methoxymethyl)phenyl]-3-methyl-4-isoxazolyl]carbamate], 3 µM corresponded to half-maximal inhibition (IC50).

`C=CC(OC(=O)Nc1c(-c2ccccc2)noc1C)c1ccccc1` (stereo not drawn) [Compound 81, 1-Phenylallyl N-(5-methyl-3-phenyl-4-isoxazolyl)carbamate] came in with an IC50 of 30 to 100 µM.

`Cc1noc(-c2ccc(COCc3ccc(F)cc3)cc2)c1NC(=O)OC(C)c1ccccc1Cl` (stereo not drawn) [Compound 82, 1-(2-Chlorophenyl)ethyl N-[5-(4-[[(4-fluorobenzyl)oxy]methyl]phenyl)-3-methyl-4-isoxazolyl]carbamate] had an IC50 of 10 to 30 µM.

`Cc1onc(-c2ccc(OC(F)(F)F)cc2)c1NC(=O)OC(C)c1ccccc1Cl` (stereo not drawn) [Compound 11, 1-(2-Chlorophenyl)ethyl N-[5-methyl-3-[4-(trifluoromethoxy)phenyl]-4-isoxazolyl]carbamate] showed an IC50 of 10 to 30 µM.

In the case of `Cc1noc(-c2cccc([N+](=O)[O-])c2)c1NC(=O)OC(C)c1ccccc1` (stereo not drawn) [Compound 58, 1-Phenylethyl N-[3-methyl-5-(3-nitrophenyl)-4-isoxazolyl]carbamate], the IC50 was determined as 10 µM.

The molecule `Cc1onc(-c2ccccc2)c1NC(=O)OC(C)c1ccccc1F` (stereo not drawn) [Compound 19, 1-(2-Fluorophenyl)ethyl N-(5-methyl-3-phenyl-4-isoxazolyl)carbamate] gave an IC50 of 3 to 10 µM.

`Cc1onc(-c2ccccc2)c1NC(=O)O[C@H](C)c1ccccc1Cl` [Compound 17, (1R)-1-(2-Chlorophenyl)ethyl N-(5-methyl-3-phenyl-4-isoxazolyl)carbamate] displayed an IC50 of 3 µM.

Turning to `Cc1noc(-c2ccc(OC(F)(F)F)cc2)c1NC(=O)O[C@H](C)c1ccccc1Br` [Compound 44, (1R)-1-(2-Bromophenyl)ethyl N-[3-methyl-5-[4-(trifluoromethoxy)phenyl]-4-isoxazolyl]carbamate], the IC50 amounted to 3 µM.

`Cc1ccc(-c2onc(C)c2NC(=O)O[C@H](C)c2ccccc2Br)cc1` [Compound 48, (1R)-1-(2-Bromophenyl)ethyl N-[3-methyl-5-(4-methylphenyl)-4-isoxazolyl]carbamate]: the IC50 lay within 3 to 10 µM.

`Cc1onc(-c2cccc(F)c2)c1NC(=O)OC(C)c1ccccc1Cl` (stereo not drawn) [Compound 21, 1-(2-Chlorophenyl)ethyl N-[3-(3-fluorophenyl)-5-methyl-4-isoxazolyl]carbamate] had an IC50 of 3 µM.

In turn, `Cc1noc(-c2ccc([N+](=O)[O-])cc2)c1NC(=O)OC(C)c1ccccc1` (stereo not drawn) [Compound 54, 1-Phenylethyl N-[3-methyl-5-(4-nitrophenyl)-4-isoxazolyl]carbamate] had an IC50 of 10 to 30 µM.

`CCCCCOC(=O)Nc1c(-c2ccccc2)noc1C` [Compound 99, Pentyl N-(5-methyl-3-phenyl-4-isoxazolyl)carbamate] yielded an IC50 of 30 to 100 µM.

For the molecule `Cc1noc(-c2ccc(CCl)cc2)c1NC(=O)OC(C)c1ccccc1F` (stereo not drawn) [Compound 155, 1-(2-Fluorophenyl)ethyl N-{5-[4-(chloromethyl)phenyl]-3-methyl-4-isoxazolyl}carbamate], the IC50 was 3 to 10 µM.

In turn, `Cc1onc(-c2ccccc2)c1NC(=O)O[C@H](C)c1ccccc1Br` [Compound 22, (1R)-1-(2-Bromophenyl)ethyl N-(5-methyl-3-phenyl-4-isoxazolyl)carbamate] registered an IC50 of 3 to 10 µM.

In the case of `Cc1noc(-c2ccc(F)cc2)c1NC(=O)OC(C)c1ccccc1` (stereo not drawn) [Compound 40, 1-Phenylethyl N-[5-(4-fluorophenyl)-3-methyl-4-isoxazolyl]carbamate], the IC50 was found to be 10 µM.

On to `CCCCc1ccc(-c2onc(C)c2NC(=O)OC(C)c2ccccc2)cc1` (stereo not drawn) [Compound 64, 1-Phenylethyl N-[5-(4-butylphenyl)-3-methyl-4-isoxazolyl]carbamate], for which the IC50 is 10 to 30 µM.

Turning to `Cc1noc(-c2ccc(C#N)cc2)c1NC(=O)OC(C)c1ccccc1` (stereo not drawn) [Compound 46, 1-Phenylethyl N-[5-(4-cyanophenyl)-3-methyl-4-isoxazolyl]carbamate], the IC50 fell in the range of 3 to 10 µM.

Molecule `Cc1noc(-c2cccs2)c1NC(=O)OC(C)c1ccccc1Cl` (stereo not drawn) [Compound 57, 1-(2-Chlorophenyl)ethyl N-[3-methyl-5-(2-thienyl)-4-isoxazolyl]carbamate] returned an IC50 of 3 µM.

Take `Cc1noc(-c2cccc(F)c2)c1NC(=O)OC(C)c1ccccc1F` (stereo not drawn) [Compound 34, 1-(2-Fluorophenyl)ethyl N-[5-(3-fluorophenyl)-3-methyl-4-isoxazolyl]carbamate]: half-maximal inhibition (IC50) was put at 10 µM.

The molecule `Cc1noc(-c2ccc(CCl)cc2)c1NC(=O)OC(C)c1ccccc1Cl` (stereo not drawn) [Compound 74, 1-(2-Chlorophenyl)ethyl N-[5-[4-(chloromethyl)phenyl]-3-methyl-4-isoxazolyl]carbamate] gave an IC50 of 1 to 3 µM.

For the molecule `Cc1noc(-c2c(-c3ccccc3)noc2C)c1NC(=O)OC(C)c1ccccc1Cl` (stereo not drawn) [Compound 72, 1-(2-Chlorophenyl)ethyl N-[5-(3-phenyl-5-methyl-4-isoxazolyl)-3-methyl-4-isoxazolyl]carbamate], the IC50 fell in the range of 10 to 30 µM.

`Cc1noc(-c2ccccc2)c1NC(=O)OCc1ccccc1` [Compound 7, Benzyl N-(3-methyl-5-phenyl-4-isoxazolyl)carbamate] gave an IC50 of 30 µM.

`Cc1noc(-c2cccc(CCl)c2)c1NC(=O)OC(C)c1ccccc1Cl` (stereo not drawn) [Compound 70, 1-(2-Chlorophenyl)ethyl N-[5-[3-(chloromethyl)phenyl]-3-methyl-4-isoxazolyl]carbamate] yielded an IC50 of 1 to 3 µM.

In turn, `Cc1ccc(-c2noc(C)c2NC(=O)OC(C)c2ccccc2Cl)cc1` (stereo not drawn) [Compound 5, 1-(2-Chlorophenyl)ethyl N-[5-methyl-3-(4-methylphenyl)-4-isoxazolyl]carbamate] had an IC50 of 10 to 30 µM.

`CC(OC(=O)Nc1c(Cl)nsc1-c1ccccc1Cl)c1ccccc1` (stereo not drawn) [Compound 25, 1-Phenylethyl N-[3-chloro-5-(2-chlorophenyl)-4-isothiazolyl]carbamate] gave an IC50 of 30 to 100 µM.

Consider `CCCCc1ccc(-c2onc(C)c2NC(=O)OC(C)c2ccccc2Cl)cc1` (stereo not drawn) [Compound 65, 1-(2-Chlorophenyl)ethyl N-[5-(4-butylphenyl)-3-methyl-4-isoxazolyl]carbamate], for which the IC50 lay within 10 to 30 µM.

With `Cc1noc(-c2cccs2)c1NC(=O)OC(C)c1ccccc1` (stereo not drawn) [Compound 56, 1-Phenylethyl N-[3-methyl-5-(2-thienyl)-4-isoxazolyl]carbamate], the IC50 fell in the range of 3 to 10 µM.

As to `Cc1onc(-c2ccccc2)c1NC(=O)O[C@@H](C)c1ccccc1` [Compound 10, (1S)-1-Phenylethyl N-(5-methyl-3-phenyl-4-isoxazolyl)carbamate], the IC50 is at least 100 µM.

The molecule `Cc1noc(-c2ccoc2)c1NC(=O)OC(C)c1ccccc1Cl` (stereo not drawn) [Compound 68, 1-(2-Chlorophenyl)ethyl N-[5-(3-furyl)-3-methyl-4-isoxazolyl]carbamate] showed an IC50 of 3 to 10 µM.

As to `Cc1noc(-c2ccc(OC(F)(F)F)cc2)c1NC(=O)OC(C)c1ccccc1` (stereo not drawn) [Compound 35, 1-Phenylethyl N-[5-[4-(trifluoromethoxy)phenyl]-3-methyl-4-isoxazolyl]carbamate], the IC50 is 3 to 10 µM.

`Cc1noc(-c2ccccc2Br)c1NC(=O)OC(C)c1ccccc1Cl` (stereo not drawn) [Compound 51, 1-(2-Chlorophenyl)ethyl N-[5-(2-bromophenyl)-3-methyl-4-isoxazolyl]carbamate] showed an IC50 of 10 to 30 µM.

The molecule `Cc1noc(-c2cccc([N+](=O)[O-])c2)c1NC(=O)OC(C)c1ccccc1Cl` (stereo not drawn) [Compound 59, 1-(2-Chlorophenyl)ethyl N-[3-methyl-5-(3-nitrophenyl)-4-isoxazolyl]carbamate] returned an IC50 of 3 to 10 µM.

As to `Cc1onc(-c2ccccc2)c1NC(=O)OCCC(C)C` [Compound 100, Isopentyl N-(5-methyl-3-phenyl-4-isoxazolyl)carbamate], the IC50 is 30 to 100 µM.

`Cc1noc(-c2ccco2)c1NC(=O)OC(C)c1ccccc1` (stereo not drawn) [Compound 31, 1-Phenylethyl N-[5-(2-furyl)-3-methyl-4-isoxazolyl]carbamate] registered an IC50 of 10 µM.

In turn, `Cc1ccsc1-c1onc(C)c1NC(=O)OC(C)c1ccccc1` (stereo not drawn) [Compound 66, 1-Phenylethyl N-[3-methyl-5-(3-methyl-2-thienyl)-4-isoxazolyl]carbamate] yielded an IC50 of 10 µM.

`CCc1noc(-c2ccc(C#N)cc2)c1NC(=O)OC(C)c1ccccc1Cl` (stereo not drawn) [Compound 77, 1-(2-Chlorophenyl)ethyl N-[5-(4-cyanophenyl)-3-ethyl-4-isoxazolyl]carbamate] came in with an IC50 of 1 to 3 µM.

As usually defined, the IC50 is the point on the concentration scale where inhibition reaches its midpoint. A lower IC50 goes with greater potency in that assay.
